Where two headings read alike, the source gives them in different places.
Molecular target: RIPK3 (Homo sapiens (Human), UniProt Q9Y572)
Assay: RIPK3 HTRF Kinase Assay
Format: binding
Settings: read-out: IC50 for Inhibition of RIPK3
[1] = RIPK3 1 nM, HTRF probe 23 nM, 60 min at room temperature

Sequence of RIPK3 (Q9Y572 whole entry, species assumed): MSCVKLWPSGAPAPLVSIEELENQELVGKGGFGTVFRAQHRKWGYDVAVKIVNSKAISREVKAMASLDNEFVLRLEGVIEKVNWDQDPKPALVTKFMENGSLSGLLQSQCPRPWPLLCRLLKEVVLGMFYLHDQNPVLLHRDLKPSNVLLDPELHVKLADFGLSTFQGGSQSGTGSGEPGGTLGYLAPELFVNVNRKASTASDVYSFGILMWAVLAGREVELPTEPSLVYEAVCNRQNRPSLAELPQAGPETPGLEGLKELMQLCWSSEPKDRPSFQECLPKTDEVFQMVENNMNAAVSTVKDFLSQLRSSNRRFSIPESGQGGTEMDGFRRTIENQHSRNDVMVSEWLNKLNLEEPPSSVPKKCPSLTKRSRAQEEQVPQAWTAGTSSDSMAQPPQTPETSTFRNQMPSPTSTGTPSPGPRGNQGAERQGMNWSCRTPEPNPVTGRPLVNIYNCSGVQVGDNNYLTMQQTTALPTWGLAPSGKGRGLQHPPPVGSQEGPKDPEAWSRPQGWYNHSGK

With `CC(=O)Nc1cc(-c2c(-c3ccc(F)cc3)c3c(n2Cc2ccc(C(F)(F)F)cc2F)CCNC3=O)ccn1` [Example 101] the IC50 [1] was < 30 nM.

`CC(=O)Nc1cc(-c2c(-c3ccc(F)cc3)c3c(n2Cc2ccc(C(F)(F)F)cc2)CCNC3=O)ccn1` [Example 102] gave an IC50 [1] of 100 to 15000 nM.

`Cc1ccc(-c2c3c(n(CC4CCOCC4)c2-c2ccncc2)CCNC3=O)c(C)c1` [Example 103] showed an IC50 [1] of 100 to 15000 nM.

With `COc1ccc(-c2c3c(n(CC4CCOCC4)c2-c2ccncc2)CCNC3=O)cc1` [Example 104] the IC50 [1] was 100 to 15000 nM.

`O=C1NCCc2c1c(-c1cccc(C(F)(F)F)c1)c(-c1ccncc1)n2CC1CCOCC1` [Example 105] was tested, and the IC50 [1] was 100 to 15000 nM.

`CC(=O)Nc1cccc(-c2c3c(n(CC4CCOCC4)c2-c2ccncc2)CCNC3=O)c1` [Example 106] gave an IC50 [1] of 100 to 15000 nM.

`COc1ccc(-c2c3c(n(CC4CCOCC4)c2-c2ccncc2)CCNC3=O)cn1` [Example 107] gave an IC50 [1] of 100 to 15000 nM.

Work on `O=C1NCCc2c1c(-c1cccnc1)c(-c1ccncc1)n2CC1CCOCC1` [Example 108] yielded an IC50 of 100 to 15000 nM.

`CN(C)c1cccc(-c2c3c(n(CC4CCOCC4)c2-c2ccncc2)CCNC3=O)c1` [Example 109] gave an IC50 [1] of 100 to 15000 nM.

`O=C1NCCc2c1c(-c1cccc(OC(F)(F)F)c1)c(-c1ccncc1)n2CC1CCOCC1` [Example 110] showed an IC50 [1] of 100 to 15000 nM.

With `O=C1NCCc2c1c(-c1cnc3ccccc3c1)c(-c1ccncc1)n2CC1CCOCC1` [Example 111] the IC50 [1] was 100 to 15000 nM.

With `O=C1NCCc2c1c(-c1cccc3ccncc13)c(-c1ccncc1)n2CC1CCOCC1` [Example 112] the IC50 [1] was 100 to 15000 nM.

In the case of `COc1ccc(-c2c3c(n(Cc4ccc(F)cc4C#N)c2-c2ccncc2)CCNC3=O)cc1OC` [Example 113], the IC50 [1] is reported as 100 to 15000 nM.

In the case of `N#Cc1cc(F)ccc1Cn1c2c(c(-c3cccc(OC(F)(F)F)c3)c1-c1ccncc1)C(=O)NCC2` [Example 114], the IC50 [1] is reported as 31 to 100 nM.

In the case of `N#Cc1cc(F)ccc1Cn1c2c(c(-c3ccc(F)c(F)c3)c1-c1ccncc1)C(=O)NCC2` [Example 115], the IC50 [1] is reported as < 30 nM.

Compound `N#Cc1cc(F)ccc1Cn1c2c(c(-c3ccc4ncccc4c3)c1-c1ccncc1)C(=O)NCC2` [Example 116] has an IC50 [1] of 100 to 15000 nM.

In the case of `COc1cc(F)cc(-c2c3c(n(Cc4ccc(F)cc4C#N)c2-c2ccncc2)CCNC3=O)c1` [Example 117], the IC50 [1] is reported as 31 to 100 nM.

`Cn1ccc2cc(-c3c4c(n(Cc5ccc(F)cc5C#N)c3-c3ccncc3)CCNC4=O)ccc21` [Example 118] was tested, and the IC50 [1] was 31 to 100 nM.

For `N#Cc1cc(F)ccc1Cn1c2c(c(-c3cccnc3)c1-c1ccncc1)C(=O)NCC2` [Example 119], the IC50 was 31 to 100 nM.

In the case of `N#Cc1cc(F)ccc1Cn1c2c(c(-c3cccc(-c4ccccc4)c3)c1-c1ccncc1)C(=O)NCC2` [Example 120], the IC50 is reported as 100 to 15000 nM.

`COc1ccc(-c2c3c(n(Cc4ccc(F)cc4C#N)c2-c2ccncc2)CCNC3=O)cc1` [Example 121] showed an IC50 [1] of 31 to 100 nM.

With `N#Cc1cc(F)ccc1Cn1c2c(c(-c3ccc(OC(F)(F)F)cc3)c1-c1ccncc1)C(=O)NCC2` [Example 122] the IC50 [1] was 100 to 15000 nM.

With `N#Cc1cc(F)ccc1Cn1c2c(c(-c3cccc(C(F)(F)F)c3)c1-c1ccncc1)C(=O)NCC2` [Example 123] the IC50 [1] was < 30 nM.

`COc1ccc(-c2c3c(n(Cc4ccc(F)cc4C#N)c2-c2ccncc2)CCNC3=O)cn1` [Example 124] was tested, and the IC50 [1] was < 30 nM.

Compound `N#Cc1cc(F)ccc1Cn1c2c(c(-c3ccccc3-c3ccccc3)c1-c1ccncc1)C(=O)NCC2` [Example 125] has an IC50 of 100 to 15000 nM.

Compound `CS(=O)(=O)c1cccc(-c2c3c(n(Cc4ccc(F)cc4C#N)c2-c2ccncc2)CCNC3=O)c1` [Example 126] has an IC50 [1] of 100 to 15000 nM.

For `N#Cc1cc(F)ccc1Cn1c2c(c(-c3ccsc3)c1-c1ccncc1)C(=O)NCC2` [Example 128], the IC50 [1] was < 30 nM.

Work on `N#Cc1cc(F)ccc1Cn1c2c(c(-c3cccc(Cl)c3Cl)c1-c1ccncc1)C(=O)NCC2` [Example 129] yielded an IC50 [1] of 31 to 100 nM.

With `N#Cc1cc(F)ccc1Cn1c2c(c(-c3ccc(Cl)s3)c1-c1ccncc1)C(=O)NCC2` [Example 130] the IC50 [1] was < 30 nM.

`COc1ccncc1-c1c2c(n(Cc3ccc(F)cc3C#N)c1-c1ccncc1)CCNC2=O` [Example 131] showed an IC50 [1] of 100 to 15000 nM.

Compound `N#Cc1cc(F)ccc1Cn1c2c(c(-c3cncc4ccccc34)c1-c1ccncc1)C(=O)NCC2` [Example 132] has an IC50 [1] of 100 to 15000 nM.

With `N#Cc1cc(F)ccc1Cn1c2c(c(-c3cccc(S(N)(=O)=O)c3)c1-c1ccncc1)C(=O)NCC2` [Example 133] the IC50 [1] was 100 to 15000 nM.

`N#Cc1cc(F)ccc1Cn1c2c(c(-c3cccc(CO)c3)c1-c1ccncc1)C(=O)NCC2` [Example 134] was tested, and the IC50 [1] was < 30 nM.

`N#Cc1cc(F)ccc1Cn1c2c(c(-c3ccc(OCc4ccccc4)cc3)c1-c1ccncc1)C(=O)NCC2` [Example 135] showed an IC50 [1] of 100 to 15000 nM.

With `N#Cc1cc(F)ccc1Cn1c2c(c(-c3ccc(Cl)c(Cl)c3)c1-c1ccncc1)C(=O)NCC2` [Example 136] the IC50 [1] was < 30 nM.

`N#Cc1cc(F)ccc1Cn1c2c(c(-c3cc(Cl)cc(Cl)c3)c1-c1ccncc1)C(=O)NCC2` [Example 138] was tested, and the IC50 [1] was < 30 nM.

`N#Cc1cccc(-c2c3c(n(Cc4ccc(F)cc4C#N)c2-c2ccncc2)CCNC3=O)c1` [Example 139] was tested, and the IC50 [1] was 31 to 100 nM.

With `COc1cc(-c2c3c(n(Cc4ccc(F)cc4C#N)c2-c2ccncc2)CCNC3=O)ccn1` [Example 140] the IC50 [1] was < 30 nM.

With `N#Cc1cc(F)ccc1Cn1c2c(c(-c3ccoc3)c1-c1ccncc1)C(=O)NCC2` [Example 141] the IC50 [1] was < 30 nM.

From patent US10301306B2, “Substituted dihydro-1H-pyrrolo[3,2-c]pyridin-4(5H)-ones as RIPK3 inhibitors” (BRISTOL-MYERS SQUIBB COMPANY, priority 2014, dated 2019)
